Data reported in patent US20240270809A1, “ORAL GLP RECEPTOR AGONISTS” (priority 2020, published 2024).
Read-outs that look alike come from different tables or passages of the source. Positions of bridges follow the written chain, without caps; N, C: chain ends. Non-standard residues stand in square brackets, D forms with d. Residues, ends and D or L forms follow the SMILES beside them. *: point of attachment. Malonyl(2,2-Me2,histaminyl) = CC(C)(C(=O)NCCc1cnc[nH]1)C(=O)*; Ala(1H-tetrazol-5-yl) = N[C@@H](Cc1nnn[nH]1)C(=O)O; Nle = CCCC[C@H](N)C(=O)O; Aib = CC(C)(N)C(=O)O

Tests used:
mouse GLP2 receptor = target: T1, mouse GLP2 receptor (Mus musculus, UniProt Q5IXF8); test: cAMP accumulation assay, functional agonism of mouse GLP2 receptor; assay type: cell-based
T1 construct: expressed in transfected cells; host or cells: HEK cells, transient transfection with GeneJuice
T1 sequence (Q5IXF8 1-512): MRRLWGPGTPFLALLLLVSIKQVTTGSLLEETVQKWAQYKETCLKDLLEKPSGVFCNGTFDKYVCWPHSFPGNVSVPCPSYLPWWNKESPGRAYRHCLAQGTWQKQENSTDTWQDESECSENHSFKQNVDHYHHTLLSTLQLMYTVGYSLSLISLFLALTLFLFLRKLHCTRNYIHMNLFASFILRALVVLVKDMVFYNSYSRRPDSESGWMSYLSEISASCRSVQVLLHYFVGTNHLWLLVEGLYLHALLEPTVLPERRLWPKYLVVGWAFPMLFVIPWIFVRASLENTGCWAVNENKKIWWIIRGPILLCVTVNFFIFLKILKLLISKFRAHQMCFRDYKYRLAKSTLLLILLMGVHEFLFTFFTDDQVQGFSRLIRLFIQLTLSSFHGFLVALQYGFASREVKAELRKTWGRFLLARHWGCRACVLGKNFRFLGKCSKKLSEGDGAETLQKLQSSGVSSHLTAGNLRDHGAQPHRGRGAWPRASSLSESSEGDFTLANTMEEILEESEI
Summary of the method: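 Transiently transfected HEK cells (24 h, frozen, 8000/well) in HBSS with 0.5 mM IBMX exposed to compound concentration series for 45 min at 37 °C. cAMP measured by HTRF after lysis and 1 h at RT; pEC50 from four-parameter concentration-response fit.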

human GLP1 receptor = target: T2, human GLP1 receptor (Homo sapiens, UniProt P43220); test: cAMP accumulation assay, functional agonism of human GLP1 receptor; assay type: cell-based; settings: HEK cells infected with human GLP1 receptor BacMam virus, HTRF cAMP; for Emax: HEK293, read-out: Human GLP-1R agonist cAMP Emax; for EC50: read-out: Human GLP-1R agonist cAMP pEC50 (converted)
T2 construct: expressed in transfected cells; host or cells: HEK cells, BacMam virus transduction
T2 sequence (P43220 24-463): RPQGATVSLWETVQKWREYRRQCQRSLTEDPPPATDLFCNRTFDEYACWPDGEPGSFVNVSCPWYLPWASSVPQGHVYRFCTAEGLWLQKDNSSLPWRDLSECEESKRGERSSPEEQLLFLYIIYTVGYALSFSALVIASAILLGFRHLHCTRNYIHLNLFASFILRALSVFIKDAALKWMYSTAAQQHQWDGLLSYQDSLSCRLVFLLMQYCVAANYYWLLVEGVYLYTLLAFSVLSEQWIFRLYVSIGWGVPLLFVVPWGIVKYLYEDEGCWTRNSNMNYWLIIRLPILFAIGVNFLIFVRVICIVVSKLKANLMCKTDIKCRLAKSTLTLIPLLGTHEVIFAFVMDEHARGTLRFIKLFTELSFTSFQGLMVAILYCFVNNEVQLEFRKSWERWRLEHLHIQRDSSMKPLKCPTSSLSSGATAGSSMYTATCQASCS
Summary of the method: (§1)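 HEK cells transduced for 24 hours with human GLP2 or GLP1 receptor BacMam virus were frozen, then stimulated with agonist in HBSS containing 0.5 mM IBMX. After 45 min at 37° C, cAMP was measured by HTRF after adding detection reagents in lysis buffer.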

human GLP2 receptor = target: T3, human GLP2 receptor (Homo sapiens, UniProt O95838); test: cAMP accumulation assay, functional agonism of human GLP2 receptor; assay type: cell-based; settings: HEK cells infected with human GLP2 receptor BacMam virus, HTRF cAMP; for Emax: HEK293, read-out: Human GLP-2R agonist cAMP Emax; for EC50: read-out: Human GLP-2R agonist cAMP pEC50 (converted)
T3 construct: expressed in transfected cells; host or cells: HEK cells, BacMam virus transduction
T3 sequence (O95838 1-553): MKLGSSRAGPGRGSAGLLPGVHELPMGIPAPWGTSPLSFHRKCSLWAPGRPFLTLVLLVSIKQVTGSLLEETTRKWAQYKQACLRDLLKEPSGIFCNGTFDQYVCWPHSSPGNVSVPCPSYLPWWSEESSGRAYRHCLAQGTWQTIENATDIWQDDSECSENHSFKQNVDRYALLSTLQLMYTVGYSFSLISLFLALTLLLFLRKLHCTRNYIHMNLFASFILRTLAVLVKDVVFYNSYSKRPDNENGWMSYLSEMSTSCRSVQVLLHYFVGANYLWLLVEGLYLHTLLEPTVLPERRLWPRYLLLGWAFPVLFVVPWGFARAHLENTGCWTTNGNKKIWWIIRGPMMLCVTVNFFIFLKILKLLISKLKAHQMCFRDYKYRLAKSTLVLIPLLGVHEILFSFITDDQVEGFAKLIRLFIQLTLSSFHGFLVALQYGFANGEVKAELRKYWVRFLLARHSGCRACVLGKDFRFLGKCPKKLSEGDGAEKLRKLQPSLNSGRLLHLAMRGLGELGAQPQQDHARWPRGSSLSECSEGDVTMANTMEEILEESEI
Summary of the method: as §1

[1] = Stability of peptides in Fasted-State Simulated Intestinal Fluid (FaSSIF); assay type: in vitro ADME; settings: FaSSIF with 10 mg/ml pancreatin; FaSSIF pH 6.5 with 10 mg/ml pancreatin, 37° C., t = 15 mins
Description: Stability of peptides was tested in Fasted-State Simulated Intestinal Fluid (FaSSIF) prepared according to manufacturer's protocol (Biorelevant, art.no. FFF01, pH 6.5). […] FaSSIF was pre-incubated for 15 min at 37° C. and spiked with test and reference item working solutions. Experiments were conducted in duplicate in a non-serial manner. The total incubation volume per replicate was 150 μl. Sampling time points for test items were 0, 0.5, 2, 5, 10, 15 and 30 min. All samples and calibration standards (prepared in FaSSIF) were precipitated by addition of 300 μl precipitant (ACN / 2% acetic acid / 0.2% HFBA, (precipitation reagent, PR)) containing internal standard (ISTD) to 150 μl sample. After incubation for 1 h at room temperature all samples were centrifuged for 10 min at 2,200×g (room temperature).

mouse GLP1 receptor = target: T4, mouse GLP1 receptor (Mus musculus, UniProt O35659); test: cAMP accumulation assay, functional agonism of mouse GLP1 receptor; assay type: cell-based
T4 construct: expressed in transfected cells; host or cells: HEK cells, transient transfection with GeneJuice
T4 sequence (O35659 22-463): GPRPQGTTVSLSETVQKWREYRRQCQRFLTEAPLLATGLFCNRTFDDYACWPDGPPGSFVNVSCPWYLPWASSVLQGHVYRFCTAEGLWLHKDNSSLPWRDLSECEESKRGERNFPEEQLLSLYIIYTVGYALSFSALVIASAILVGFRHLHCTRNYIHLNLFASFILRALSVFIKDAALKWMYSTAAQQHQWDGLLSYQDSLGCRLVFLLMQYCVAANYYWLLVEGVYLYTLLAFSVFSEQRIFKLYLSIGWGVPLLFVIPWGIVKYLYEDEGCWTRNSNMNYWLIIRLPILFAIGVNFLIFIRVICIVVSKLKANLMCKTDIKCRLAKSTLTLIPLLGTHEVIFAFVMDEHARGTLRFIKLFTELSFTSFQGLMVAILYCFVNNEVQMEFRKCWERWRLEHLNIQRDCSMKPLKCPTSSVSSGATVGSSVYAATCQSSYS
Description: CAMP production upon agonist stimulation of mouse GLP2 or GLP1 receptors was assessed utilizing HiRange cAMP kit (Cisbio). In brief, HEK cells were transiently transfected for 24 hours with cDNA using GeneJuice Transfection reagent (EMD Millipore) and frozen at −80° C. for later use in the assay. […] Cells were prepared in the assay buffer (HBSS (Lonza) supplemented with 0.5 mM IBMX (Tocris)). After 45 min incubation at 37° C., the reaction was stopped by addition of the HTRF detection reagents in the lysis buffer provided in the kit. Following 1-hour incubation at RT, plates were read on Pherastar FS (BMG Labtech, Inc.) using standard HTRF settings. Dotmatics Studies software was used for calculation of pEC50 values by fitting data to a four-parameter concentration response curve.

[2] = HEK293, HEK cells transiently transfected with mouse GLP2 receptor, HTRF cAMP, read-out: Mouse GLP-2R agonist cAMP Emax
[3] = HEK cells transiently transfected with mouse GLP2 receptor, HTRF cAMP, read-out: Mouse GLP-2R agonist cAMP pEC50 (converted)
[4] = HEK293, HEK cells transiently transfected with mouse GLP1 receptor, HTRF cAMP, read-out: Mouse GLP-1R agonist cAMP Emax
[5] = HEK cells transiently transfected with mouse GLP1 receptor, HTRF cAMP, read-out: Mouse GLP-1R agonist cAMP pEC50 (converted)

| Structure (SMILES) | Emax (mouse GLP2 receptor; [2]) [%] | EC50 (mouse GLP2 receptor; [3]) [nM] | Emax (human GLP1 receptor) [%] | EC50 (human GLP1 receptor) [nM] | Emax (human GLP2 receptor) [%] | EC50 (human GLP2 receptor) [nM] | remaining at 0.25 h [1] [%] | Emax (mouse GLP1 receptor; [4]) [%] | EC50 (mouse GLP1 receptor; [5]) [nM] | EC50 (mouse GLP2 receptor) [nM] | Emax (mouse GLP2 receptor; HEK293, read-out: Mouse GLP-2R agonist cAMP Emax) [%] | EC50 (mouse GLP1 receptor) [nM] | Emax (mouse GLP1 receptor; HEK293, read-out: Mouse GLP-1R agonist cAMP Emax) [%] |
| --- | --- | --- | --- | --- | --- | --- | --- | --- | --- | --- | --- | --- | --- |
| CCCC[C@H](NC(=O)[C@H](CCC(=O)O)NC(=O)[C@H](CC(=O)O)NC(=O)[C@H](CO)NC(=O)[C@H](Cc1ccccc1)NC(=O)[C@H](CO)NC(=O)CNC(=O)[C@H](CC(=O)O)NC(=O)C(C)(C)NC(=O)[C@@H](N)Cc1c[nH]cn1)C(=O)N[C@H](Cc1ccccc1)C(=O)N[C@H](C(=O)N[C@H](C(=O)N[C@@H](CC(C)C)C(=O)N[C@@H](CC(=O)O)C(=O)N[C@H]1CCCCNC(=O)CC[C@@H](C(=O)N[C@@H](CC(=O)O)C(=O)N[C@@H](Cc2ccccc2)C(=O)N[C@H](C(=O)N[C@@H](CC(N)=O)C(=O)N[C@@H](Cc2c[nH]c3ccccc23)C(=O)N[C@@H](CC(C)C)C(=O)N[C@H](C(=O)N[C@@H](CCC(N)=O)C(=O)N[C@H]2CCCCNC(=O)CC[C@@H](C(N)=O)NC(=O)[C@H]([C@@H](C)O)NC(=O)[C@H]([C@@H](C)CC)NC(=O)[C@H](CCCCN)NC2=O)[C@@H](C)CC)[C@@H](C)CC)NC(=O)[C@H](C)NC(=O)[C@H](C)NC(=O)[C@H](CCCCN)NC1=O)[C@@H](C)CC)[C@@H](C)O [Example 113] (H-H[Aib]DGSFSDE[Nle][dF]TILDKKAAEDFINWLIQKKITE-NH2; lactam 16-20, 29-33; C-terminus assumed) | 99.2 | 0.2 | 97 | 2 | 101 | 0.00316 | 3.4 | 96.3 | 1.58 |  |  |  |  |
| CCCC[C@H](NC(=O)[C@H](CCC(=O)O)NC(=O)[C@H](CC(=O)O)NC(=O)[C@H](CO)NC(=O)[C@H](Cc1ccccc1)NC(=O)[C@H](CO)NC(=O)CNC(=O)[C@H](CC(=O)O)NC(=O)C(C)(C)NC(=O)[C@@H](N)Cc1c[nH]cn1)C(=O)N[C@H](Cc1ccccc1)C(=O)N[C@H](C(=O)N[C@H](C(=O)N[C@@H](CC(C)C)C(=O)N[C@@H](CC(=O)O)C(=O)N[C@H]1CC(=O)NCCCC[C@@H](C(=O)N[C@@H](CC(=O)O)C(=O)N[C@@H](Cc2ccccc2)C(=O)N[C@H](C(=O)N[C@@H](CC(N)=O)C(=O)N[C@@H](Cc2c[nH]c3ccccc23)C(=O)N[C@@H](CC(C)C)C(=O)N[C@H](C(=O)N[C@@H](CCC(N)=O)C(=O)N[C@H](C(=O)N[C@@H](CCCCN)C(=O)N[C@H](C(=O)N[C@H](C(=O)N[C@@H](CC(=O)O)C(N)=O)[C@@H](C)O)[C@@H](C)CC)[C@@H](C)O)[C@@H](C)CC)[C@@H](C)CC)NC(=O)[C@H](C)NC(=O)[C@H](C)NC(=O)[C@H](CCCCN)NC1=O)[C@@H](C)CC)[C@@H](C)O [Example 92] (H-H[Aib]DGSFSDE[Nle][dF]TILDDKAAKDFINWLIQTKITD-NH2; lactam 16-20; N-terminus and C-terminus assumed) | 98.9 | 0.0126 | 96.5 | 10 | 99.3 | 0.002 |  | 94.8 | 10 |  |  |  |  |
| CCCC[C@H](NC(=O)[C@H](CCC(=O)O)NC(=O)[C@H](CC(=O)O)NC(=O)[C@H](CO)NC(=O)[C@H](Cc1ccccc1)NC(=O)[C@H](CO)NC(=O)CNC(=O)[C@H](Cc1nn[nH]n1)NC(=O)C(C)(C)C(=O)NCCc1c[nH]cn1)C(=O)N[C@H](Cc1ccccc1)C(=O)N[C@H](C(=O)N[C@H](C(=O)N[C@@H](CC(C)C)C(=O)N[C@@H](CC(=O)O)C(=O)N[C@H]1CCC(=O)NCCCC[C@@H](C(=O)N[C@@H](CC(=O)O)C(=O)N[C@@H](Cc2ccccc2)C(=O)N[C@H](C(=O)N[C@@H](CC(N)=O)C(=O)N[C@@H](Cc2c[nH]c3ccccc23)C(=O)N[C@@H](CC(C)C)C(=O)N[C@H](C(=O)N[C@@H](CCC(N)=O)C(=O)N[C@H](C(=O)N[C@@H](CCCCN)C(=O)N[C@H](C(=O)N[C@H](C(=O)N[C@@H](Cc2ccccc2)C(N)=O)[C@@H](C)O)[C@@H](C)CC)[C@@H](C)O)[C@@H](C)CC)[C@@H](C)CC)NC(=O)[C@H](C)NC(=O)[C@H](C)NC(=O)[C@H](CCCCN)NC1=O)[C@@H](C)CC)[C@@H](C)O [Example 96] ({Malonyl(2,2-Me2,histaminyl)}-[Ala(1H-tetrazol-5-yl)]GSFSDE[Nle][dF]TILDEKAAKDFINWLIQTKITF-NH2; lactam 14-18) |  |  | 96.4 | 0.501 | 101 | 0.00631 |  |  |  | 0.794 | 101 | 0.794 | 96.1 |
| CCCC[C@H](NC(=O)[C@H](CCC(=O)O)NC(=O)[C@H](CC(=O)O)NC(=O)[C@H](CO)NC(=O)[C@H](Cc1ccccc1)NC(=O)[C@H](CO)NC(=O)CNC(=O)[C@H](Cc1nn[nH]n1)NC(=O)C(C)(C)C(=O)NCCc1c[nH]cn1)C(=O)N[C@H](Cc1ccccc1)C(=O)N[C@H](C(=O)N[C@H](C(=O)N[C@@H](CC(C)C)C(=O)N[C@@H](CC(=O)O)C(=O)N[C@H]1CC(=O)NCCCC[C@@H](C(=O)N[C@@H](CC(=O)O)C(=O)N[C@@H](Cc2ccccc2)C(=O)N[C@H](C(=O)N[C@@H](CC(N)=O)C(=O)N[C@@H](Cc2c[nH]c3ccccc23)C(=O)N[C@@H](CC(C)C)C(=O)N[C@H](C(=O)N[C@@H](CCC(N)=O)C(=O)N[C@H](C(=O)N[C@@H](CCCCN)C(=O)N[C@H](C(=O)N[C@H](C(=O)N[C@@H](Cc2ccccc2)C(N)=O)[C@@H](C)O)[C@@H](C)CC)[C@@H](C)O)[C@@H](C)CC)[C@@H](C)CC)NC(=O)[C@H](C)NC(=O)[C@H](C)NC(=O)[C@H](CCCCN)NC1=O)[C@@H](C)CC)[C@@H](C)O [Example 95] ({Malonyl(2,2-Me2,histaminyl)}-[Ala(1H-tetrazol-5-yl)]GSFSDE[Nle][dF]TILDDKAAKDFINWLIQTKITF-NH2; lactam 14-18; C-terminus assumed) | 102 | 0.00794 | 97 | 3.98 | 102 | 0.00794 |  | 94.7 | 5.01 |  |  |  |  |
